# Experimental data as given in patent US5877185A, “Synergistic compositions useful as anti-tumor agents” (priority 1995, dated 1999).
# Legend:
# [1] = tested on: Du 145; experiment: cytotoxicity of INO2 BA with and without BSO, Du 145; type: cell-based; details: Homo sapiens
# Experimental: (§1) The concentration of BSO was 1 mM for all cell lines except HT 144, where the concentration was 0.25 mM. Cells were seeded in the recommended growth medium at a density of 1.5×10^4 cell/cm^2 into 2 cm^2 wells. Drugs were added simultaneously 4 hours after seeding, and incubation was continued for 48 hours at 37° C. in a 5% CO2 atmosphere. For assessment of drug effects cells were detached by trypsinization and counted in a hemacytometer.
# (§2) Cell lines Nos. 1-4 were obtained from Dr. C. Benz, University of California, San Francisco. MDA 468 and MCF-7 human mammary cancer lines, MCF-7-B-ADR drug-resistant mammary cancer line, Du 145 drug-resistant human prostate cancer line, HT 144 human melanoma cell line, Hep-G2 human hepatocellular carcinoma line, and PC-12 rat pheochromocytoma line were obtained from the University of California Cell Culture Facility.
# [2] = tested on: MT-2 cells; experiment: effectiveness on human T-lymphoblastoid leukemia cells, MT-2; type: cell-based
# Experimental: IV. Effectiveness of 4-(halogen)-3-nitro-benzamide compounds as tested with human T-lymphoblastoid leukemia cell lines in culture.
# Cells (MT-2 cells, or, in case of 3-fluoro-4-nitro-benzamide, CEM-4 cells) were seeded at a density of 0.1×10^5 /ml; the drugs were added at the time of seeding. The cultures were incubated at 37° C. in a 5% CO2 atmosphere and the cells numbers were monitored by hemacytometer counting in 24 hr intervals.
# [3] = tested on: HIV in intact human macrophages; details: Kun et al., Abstract 422A; cited from earlier work
# [4] = tested on: Hep-G2; experiment: cytotoxicity of INO2 BA with and without BSO, Hep-G2; type: cell-based; details: Homo sapiens
# Experimental: as §1, §2
# [5] = metabolic conversion of INO2 BA to INH2 BA by 855-2 cells; type: in vitro ADME; details: 855-2 cells; 120 μM INO2 BA, 37° C.; read-out: rate of reduction of the nitro to the amino end-product
# Experimental: (§3) The cell metabolites of INO2 BA metabolism were identified. A suspension of 855-2 cells (6), 150×10^6 cells in ml of RPMI-1640 medium, was dosed with INO2 BA to a concentration of 120 μM, incubated at 37° C. for 18 hr, and then freeze-dried, extracted 3 times with EtOH (10 ml each time) for 30 min and centrifuged. The extract was rotary evaporated to dryness, redissolved in EtOH (3.0 ml), microfuged to remove small particles, and aliquots (200 μl) injected into HPLC. In control experiments, instead of incubating the drug-dosed cell suspension it was immediately frozen, freeze-dried and extracted. HPLC analyses were performed essentially as reported earlier, except the pH of the buffers was 4.3. Buki et al., FEBS Lett. 290:181-185 (1991). Upon sample injection the gradient started from 100%A to 100%B in 30 min, to 50%B/50%C in 15 min, to 100%C in 3 min. Retention times of synthetic standards were: 4-iodo-3-hydroxylaminobenzamide 18.7 min; 4-iodo-3-aminobenzamide ("INH2 BA") 24.7 min; INO2 BA 34.5 min; INOBA 36.5 min and 6,6'-diiodo-3,3'-dicarbamoylazoxybenzene 46.9 min.
# [6] = tested on: 855-2 cells; experiment: as above; type: in vitro ADME; details: 120 μM INO2 BA, 18 hr, 37° C.
# Experimental: as §3
# [7] = tested on: leukemic and other malignant human cells; details: cited from earlier work
# [8] = tested on: pADPRT; experiment: pADPRT zinc content / zinc ejection; type: biochemical; details: 25° C.
# Experimental: FIG. 2A is a graph comparing the effects of NOBA and INOBA on the enzyme activity and zinc content of pADPRT. Inactivation was performed as described in Example III. In these experiments ^65 Zn^2+ -labeled pADPRT was used. The Zn^2+ content of pADPRT (upper panel) was determined as follows: two parallels of aliquots (4 μl) were pipetted into 500 μl of ice-cold washing solution (50 mM Tris, pH 7.7, 10 mM 2-mercaptoethanol and 0.5 mM EDTA) then filtered onto GF/C disks presoaked in washing solution (cold), quickly washed 4 times with 1 ml of ice-cold washing solution, dried, and the radioactivity determined. The protein-bound ^65 Zn^2+ is shown as percent of the untreated sample. Enzyme assays (lower panel) were performed as in FIG. 1.
# For the release of Zn^2+ from transblotted pADPRT, the enzyme (3 μg per lane) was separated on SDS-PAGE, transblotted onto a nitrocellulose membrane, and renatured in the presence of ^65 ZnCl2. […] After incubation, 1 ml of the supernatant was counted for radioactivity, and the strips were washed 3 times with 2 ml of 50 mM Tris-HCl pH 7.4), 0.5 mM EDTA and 10 Mm 2-mercaptoethanol, and then dried and exposed to X-ray film. The intensity of the autoradiographic spots was quantitated by a scanner. […]
smiles,measurement,setting,value
"NC(=O)c1ccc(I)c([N+](=O)[O-])c1 [INO2 BA, 4-iodo-3-nitrobenzamide]",IC100,"[1]; DU-145, 48 h, read-out: LD100",250 µM
same,IC50,"[1]; DU-145, INO2 BA alone, 48 hours, read-out: I50",120 µM
same,IC50,"[2]; Homo sapiens, MT2, concentration decreasing cell viability to 50% of control, 48 h incubation, read-out: I50",70 µM
same,LD100,[2]; zero viability after 48 hours of incubation,190
same,inhibition of HIV replication,[3],readily inhibited
same,IC100,"[4]; HepG2, 48 h, read-out: LD100",200 µM
same,IC50,"[4]; HepG2, INO2 BA alone, 48 hours, read-out: I50",120 µM
same,"metabolised at 18 h, 120 µM",[5],2.2 ± 0.2%
same,identified metabolite,[6],the only identified metabolite was INH2 BA
"NC(=O)c1cccc(N=O)c1 [NOBA, 3-nitrosobenzamide]",suppression of proliferation,[7],completely suppressed
same,time in which zinc ejection was complete,[8],≤ 2 h
